The results in this text go back to ChEMBL document CHEMBL1151408 (J Nat Prod, 1983).

The species entered for assay [1] is Mus musculus. The assay is described as follows: Increase in hepatic ethylmorphine N-demethylase activity in mouse. The class given is functional.
The species named for assay [2] is Mus musculus. The assay is described as follows: Increase in aryl hydrocarbon hydroxylase activity in mouse. The format is functional.

In the case of `CO[C@H]1/C=C/O[C@@]2(C)Oc3c(C)c(O)c4c(O)c(c(/C=N/N5CCN(C)CC5)c(O)c4c3C2=O)NC(=O)/C(C)=C\C=C\[C@H](C)[C@H](O)[C@@H](C)[C@@H](O)[C@@H](C)[C@H](OC(C)=O)[C@@H]1C` [RIFAMPIN], the Activity was 85% in the assay listed under Mus musculus [1] and 174% in the assay listed under Mus musculus [2].
